Experimental data reported in patent US8129398B2 (priority 2008, dated 2012).

These molecules were tested against T1, HIV-integrase (Human immunodeficiency virus type 1 group M subtype B, UniProt P12497) (assay: HIV-Integrase Inhibition Activity (SPA bead integration assay with P33 labeled target DNA)). Details: recombinant integrase, class symbols; read-out: in vitro activity.
T1 construct: Recombinant integrase (0.26 ng) was incubated with the beads
Type: biochemical
How it was run: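 Biotinylated substrate DNA on streptavidin SPA beads loaded with recombinant integrase (90 min, 37° C), washed, then inhibitor plus 0.1 fmol P33-labeled target DNA added. Reaction stopped with 10 mM EDTA; integration measured as CPM by scintillation, giving IC50 ranks.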

For COCCOC(=O)NC12CCC(CC1)Cn1c2nc(C(=O)NCc2ccc(F)cc2)c(O)c1=O [Example 259, Carbamic acid, [2-[[[(4-fluorophenyl)methyl]amino-0]carbonyl]-6,7,8,9-tetrahydro-3-hydroxy-4-oxo-7,10-ethanopyrimido[1,2-a]azepin-10(4H)-yl]-, 2-methoxyethyl ester], which IC50 is on record?
Its IC50 is less than 10 nM.

For CN(C)C(=O)C(=O)NC12CCC(CC1)Cn1c2nc(C(=O)NCCc2ccc(S(N)(=O)=O)cc2)c(O)c1=O [Example 351], which IC50 is on record?
Its IC50 is greater than 100 nM.

Which IC50 does the source give for Cc1cc(CNC(=O)c2nc3n(c(=O)c2O)CC2CCC3(NC(=O)Nc3cccnc3)CC2)ccc1F [Example 326, 7,10-Ethanopyrimido[1,2-a]azepine-2-carboxamide, N-[(4-fluoro-3-methylphenyl)methyl]-4,6,7,8,9,10-hexahydro-3-hydroxy-4-oxo-10-[[(3-pyridinylamino)carbonyl]amino]-] here?
The IC50 was less than 10 nM.

CN1CCC[C@@H]1C(=O)NC12CCC(CC1)Cn1c2nc(C(=O)NCc2ccc(F)cc2)c(O)c1=O [Example 257, 7,10-Ethanopyrimido[1,2-a]azepine-2-carboxamide, N-[(4-fluorophenyl)methyl]-4,6,7,8,9,10-hexahydro-3-hydroxy-10-[[[(2R)-1-methyl-2-pyrrolidinyl]carbonyl]amino]-4-oxo-] was tested. Which IC50 did it give?
The IC50 was 10 to 100 nM.

CN(C)C(=O)C(=O)NC12CCC(CC1)Cn1c2nc(C(=O)NCc2ccc(F)cc2S(C)(=O)=O)c(O)c1=O [Example 117, N′-(2-((4-Fluoro-2-(methylsulfonyl)benzyl)carbamoyl)-3-hydroxy-4-oxo-6,7,8,9-tetrahydro-7,10-ethanopyrimido[1,2-a]azepin-10(4H)-yl)-N,N-dimethylethanediamide] was tested. Which IC50 did it give?
Its IC50 is 10 to 100 nM.

Which IC50 does the source give for Cc1cc(CNC(=O)c2nc3n(c(=O)c2O)CC2CCC3(NC(=O)[C@@H]3CCCN3S(C)(=O)=O)CC2)ccc1F [Example 263, 7,10-Ethanopyrimido[1,2-a]azepine-2-carboxamide, N-[(4-fluoro-3-methylphenyl)methyl]-4,6,7,8,9,10-hexahydro-3-hydroxy-10-[[[(2S)-1-(methylsulfonyl)-2-pyrrolidinyl]carbonyl]amino]-4-oxo-] here?
The IC50 was less than 10 nM.

How did the IC50 turn out when Cc1oncc1S(=O)(=O)NC12CCC(CC1)Cn1c2nc(C(=O)NCc2ccc(F)cc2)c(O)c1=O [Example 393] was run?
The IC50 was less than 10 nM.

How did the IC50 turn out when CC(=O)Nc1cc(C(=O)NC23CCC(CC2)Cn2c3nc(C(=O)NCc3ccc(F)cc3)c(O)c2=O)ccn1 [Example 318, 7,10-Ethanopyrimido[1,2-a]azepine-2-carboxamide, 10-[[[2-(acetylamino)-4-pyridinyl]carbonyl]amino]-N-[(4-fluorophenyl)methyl]-4,6,7,8,9,10-hexahydro-3-hydroxy-4-oxo-] was run?
The IC50 was less than 10 nM.

For O=C(NC12CCC(CCn3c1nc(C(=O)NCc1ccc(F)cc1)c(O)c3=O)C2)C(=O)N1CC[C@@H](F)C1 (stereo partly drawn) [Example 208, 8,11-Methano-4H-pyrimido[1,2-a]azocine-2-carboxamide, N-[(4-fluorophenyl)methyl]-11-[[2-[(3R)-3-fluoro-1-pyrrolidinyl]-1,2-dioxoethyl]amino]-6,7,8,9,10,11-hexahydro-3-hydroxy-4-oxo-], which IC50 is on record?
Its IC50 is less than 10 nM.

How did the IC50 turn out when Cc1ccc(CNC(=O)c2nc3n(c(=O)c2O)CC2CCC3(NC(=O)C(=O)N(C)C)CC2)o1 [Example 234] was run?
The IC50 was less than 10 nM.

For CO[C@H]1C[C@@H](C(=O)NC23CCC(CC2)Cn2c3nc(C(=O)NCc3ccc(F)c(C)c3)c(O)c2=O)N(C(=O)c2ncn(C)n2)C1 [Example 299, 7,10-Ethanopyrimido[1,2-a]azepine-2-carboxamide, N-[(4-fluoro-3-methylphenyl)methyl]-4,6,7,8,9,10-hexahydro-3-hydroxy-10-[[[(2S,4S)-4-methoxy-1-[(1-methyl-1H-1,2,4-triazol-3-yl)carbonyl]-2-pyrrolidinyl]carbonyl]amino]-4-oxo-], which IC50 is on record?
Its IC50 is less than 10 nM.

For CN(C(=O)C(=O)NC12CCC(CC1)Cn1c2nc(C(=O)NCc2ccc(F)cc2)c(O)c1=O)C1CC1 [Example 82, N-Cyclopropyl-N′-(2-((4-fluorobenzyl)carbamoyl)-3-hydroxy-4-oxo-6,7,8,9-tetrahydro-7,10-ethanopyrimido[1,2-a]azepin-10(4H)-yl)-N-methylethanediamide], which IC50 is on record?
Its IC50 is less than 10 nM.

With COC1CN(C(=O)C(=O)NC23CCC(CC2)Cn2c3nc(C(=O)NCc3ccc(F)cc3)c(O)c2=O)C1 [Example 66, N-(4-Fluorobenzyl)-3-hydroxy-10-(((3-methoxy-1-azetidinyl) (oxo)acetyl)amino)-4-oxo-4,6,7,8,9,10-hexahydro-7,10-ethanopyrimido[1,2-a]azepine-2-carboxamide] as the molecule, how does the IC50 read?
The IC50 was less than 10 nM.

Which IC50 does the source give for COCCN(C)C(=O)C(=O)N(C)C12CCC(CC1)Cn1c2nc(C(=O)NCc2ccc(F)cc2)c(O)c1=O [Example 167, N-(2-((4-Fluorobenzyl)carbamoyl)-3-hydroxy-4-oxo-6,7,8,9-tetrahydro-7,10-ethanopyrimido[1,2-a]azepin-10(4H)-yl)-N′-(2-methoxyethyl)-N,N′-dimethylethanediamide] here?
The IC50 was less than 10 nM.

Which IC50 does the source give for O=C(NC12CCC(CC1)Cn1c2nc(C(=O)NCc2ccc(F)cc2)c(O)c1=O)C(=O)N1CCC(F)CC1 [Example 102, N-(4-Fluorobenzyl)-10-(((4-fluoro-1-piperidinyl)(oxo)acetyl)amino)-3-hydroxy-4-oxo-4,6,7,8,9,10-hexahydro-7,10-ethanopyrimido[1,2-a]azepine-2-carboxamide] here?
The IC50 was less than 10 nM.

How did the IC50 turn out when CN(C)C(=O)C(=O)NC12CCC(Cn3c1nc(C(=O)NCc1ccc(F)cc1)c(O)c3=O)OC2 (stereo not shown) [Example 222, N′-(2-((4-Fluorobenzyl)carbamoyl)-3-hydroxy-4-oxo-6,7,8,9-tetrahydro-7,10-(epoxymethano)pyrimido[1,2-a]azepin-10(4H)-yl)-N,N-dimethylethanediamide] was run?
Its IC50 is less than 10 nM.

How did the IC50 turn out when CN(C)C(=O)C(=O)NC12CCC(CC1)n1c2nc(C(=O)NCc2ccc(F)cc2)c(O)c1=O [Example 16, Ethanediamide, N′-[2-[[[(4-fluorophenyl)methyl]amino]carbonyl]-7,8-dihydro-3-hydroxy-4-oxo-6,9-ethano-4H-pyrido[1,2-a]pyrimidin-9(6H)-yl]-N,N-dimethyl-] was run?
Its IC50 is less than 10 nM.

For CN(C)C(=O)CNC12CCC(CC1)Cn1c2nc(C(=O)NCc2ccc(F)cc2)c(O)c1=O [Example 30, 10-((2-(Dimethylamino)-2-oxoethyl)amino)-N-(4-fluorobenzyl)-3-hydroxy-4-oxo-4,6,7,8,9,0-hexahydro-7,10-ethanopyrimido[1,2-a]azepine-2-carboxamide], which IC50 is on record?
The IC50 was 10 to 100 nM.

Which IC50 does the source give for O=C(NC12CCC(CCn3c1nc(C(=O)NCc1ccc(F)cc1)c(O)c3=O)C2)C(=O)N1CC[C@H](F)C1 (stereo partly drawn) [Example 207, 8,11-Methano-4H-pyrimido[1,2-a]azocine-2-carboxamide, N-[(4-fluorophenyl)methyl]-11-[[2-[(3S)-3-fluoro-1-pyrrolidinyl]-1,2-dioxoethyl]amino]-6,7,8,9,10,11-hexahydro-3-hydroxy-4-oxo-] here?
Its IC50 is less than 10 nM.

With CN/C(=N\C#N)NC12CCC(CC1)Cn1c2nc(C(=O)NCc2ccc(F)c(C)c2)c(O)c1=O [Example 335, 7,10-Ethanopyrimido[1,2-a]azepine-2-carboxamide, 10-[[(1Z)-(cyanoamino)(methylamino)methylene]amino]-N-[(4-fluoro-3-methylphenyl)methyl]-4,6,7,8,9,10-hexahydro-3-hydroxy-4-oxo-] as the molecule, how does the IC50 read?
The IC50 was less than 10 nM.

O=C(NC12CCC(CCn3c1nc(C(=O)NCc1ccc(F)cc1)c(O)c3=O)C2)C(=O)N1CC(F)(F)C1 (stereo not shown) [Example 202, 8,1,1-Methano-4H-pyrimido[1,2-a]azocine-2-carboxamide, 1′-[[2-(3,3-difluoro-1-azetidinyl)-1,2-dioxoethyl]amino]-N-[(4-fluorophenyl)methyl]-6,7,8,9,10,11-hexahydro-3-hydroxy-4-oxo-] was tested. Which IC50 did it give?
The IC50 was less than 10 nM.

With O=C(NCc1ccc(F)cc1)c1nc2n(c(=O)c1O)CC1CCC2(NC(=O)[C@H]2CCCN2)CC1 [Example 252, 7,10-Ethanopyrimido[1,2-a]azepine-2-carboxamide, N-[(4-fluorophenyl)methyl]-4,6,7,8,9,10-hexahydro-3-hydroxy-4-oxo-10-[[(2R)-2-pyrrolidinylcarbonyl]amino]-] as the molecule, how does the IC50 read?
Its IC50 is 10 to 100 nM.

With O=C(NCc1ccc(F)cc1)c1nc2n(c(=O)c1O)CC1CCC2(NS(=O)(=O)c2ccccc2)CC1 [Example 395] as the molecule, how does the IC50 read?
Its IC50 is less than 10 nM.

For O=C(NCc1ccc(F)cc1)c1nc2n(c(=O)c1O)CC1CCC2(NC(=O)C2CCCN2S(=O)(=O)C2CCCC2)CC1 (stereo not shown) [Example 408], which IC50 is on record?
The IC50 was less than 10 nM.

COCCOC12CCC(CC1)Cn1c2nc(C(=O)NCc2ccc(F)cc2)c(O)c1=O [Example 225, 7,10-Ethanopyrimido[1,2-a]azepine-2-carboxamide, N-[(4-fluorophenyl)methyl]-4,6,7,8,9,10-hexahydro-3-hydroxy-10-(2-methoxyethoxy)-4-oxo-] was tested. Which IC50 did it give?
The IC50 was less than 10 nM.

For O=C(NC12CCC(CC1)Cn1c2nc(C(=O)NCc2ccc(F)cc2)c(O)c1=O)c1ccnc(OCC(F)(F)F)c1 [Example 316, 7,10-Ethanopyrimido[1,2-a]azepine-2-carboxamide, N-[(4-fluorophenyl)methyl]-4,6,7,8,9,10-hexahydro-3-hydroxy-4-oxo-10-[[[2-(2,2,2-trifluoroethoxy)-4-pyridinyl]carbonyl]amino]-], which IC50 is on record?
The IC50 was less than 10 nM.

For Cc1noc(C)c1S(=O)(=O)N1CCN(C(=O)C(=O)NC23CCC(CC2)Cn2c3nc(C(=O)NCc3ccc(F)cc3)c(O)c2=O)CC1 [Example 146, 10-(((4-((3,5-Dimethyl-4-isoxazolyl)sulfonyl)-1-piperazinyl)(oxo)acetyl)amino)-N-(4-fluorobenzyl)-3-hydroxy-4-oxo-4,6,7,8,9,10-hexahydro-7,10-ethanopyrimido[1,2-a]azepine-2-carboxamide], which IC50 is on record?
The IC50 was less than 10 nM.

For COc1cc(F)ccc1CNC(=O)c1nc2n(c(=O)c1O)CC1CCC2(NC(=O)C(=O)N(C)C)CC1 [Example 116, N′-(2-((4-Fluoro-2-methoxybenzyl)carbamoyl)-3-hydroxy-4-oxo-6,7,8,9-tetrahydro-7,10-ethanopyrimido[1,2-a]azepin-10(4H)-yl)-N,N-dimethylethanediamide], which IC50 is on record?
Its IC50 is less than 10 nM.
